Measured values: patent US10822656B2, “Methods and systems for high-throughput toxicity screening of a compound using mahalanobis values” (priority 2017, dated 2020)

Tested on: human hepatocytes (cell lines Hu1153, Hu1154, Hu1156, Hu1164)
Assay: Transcriptomics Mahalanobis distance (MD) toxicity analysis of hepatocytes exposed in-vitro
Assay type: cell-based
Method: In one embodiment, four human donors were used to provide four independent cell lines of hepatocytes.
A number of the 192 genes were analyzed using more than one probe and as a result there were 465 different measurements or variables for each experiment. […] PPARα are nuclear receptor proteins of the hepatocyte that regulate gene expression through transcription factors and are essential in the regulation of lipid metabolism.
The MD is calculated as follows (Taguchi & R. Jungulum, 2002): MDj−Dj^2=Z′ijC^−1Zij, and Equation 1: Zij=(Xij−mi)/si Equation 2: Xij=value of the ith characteristic (gene) of the jth observation (experiment) mi=mean of the ith characteristic (gene) si=standard deviation of the ith characteristic (gene) Zij=(z1j, z2j, z3j, . . . , zkj) standardized vector of the standardized values of the Xij Zij′=transpose of the Zij standardized vector C^−1=inverse of the correlation matrix k=total number of gene measurements (e.g. 465 variables).
Data must be collected to identify the reference group from the unstressed cells. […] The MS will be determined by the normal group's mean and standard deviation vector, and the correlation matrix. The reference group will be referred to as the healthy/normal group. This is the most important aspect of the approach, as this MS will be the reference point in n-space. It is used to compare stressed hepatocyte data collected from the perturbed experiments. The measurement scale extends from the centroid of the MS and is typically one unit distance away. The centroid of the MS is the zero point for the measurement scale. The larger the Mahalanobis distance (MD) number the further it is from the centroid of the Mahalanobis space and the higher the risk from exposure. The Mahalanobis distance for each perturbed experiment will be derived from information describing the MS and will be shown below. The MD is a value that describes the relationship between the normal group and the experiment. As hepatocyte cells are stressed by varying concentrations and times of exposure, the same variables that were measured to establish the MS for the normal group will be used to determine a MD number for the experimental data. […] This MD number will be indicative of the experiments generalized distance from the centroid of the healthy/normal group. As concentration and time of exposure increases the MD number for that experiment could increase or decrease, depending on whether the stress of the genes are increasing or decreasing. In general, unstressed hepatocytes tend to look quite similar to the healthy/normal group, while stressed hepatocytes tend to look quite different from the healthy/normal group and will have a higher MD number. In addition, the changes in correlation structure among the stressed hepatocytes strongly affect the MD number. In the case where a hepatocyte's MD number reaches a predetermined high threshold value, genes may start to mutate rapidly. If the MD number becomes similar to those of the healthy/normal group, the risk associated to exposure by a particular compound could be considered a low risk from exposure.
Referring now to FIG. 14, in one embodiment, 20 different experiments were conducted to build the healthy/normal group where the cells were not exposed to chemical, e.g. GW7647. FIG. 14 is an illustration of a snapshot of the database of Normal Unexposed Observation Data where the transcriptomics data of four cell lines—1153, 1154, 1156, and 1164—are provided across five time periods—2, 6, 12, 24, and 72 hours.
This baseline information is used to determine the amount of stress the exposed cells are experiencing from the reference cell pattern of unstressed cells—the healthy/normal group. All the data collected in the 120 different experiments and 465 variables, used the same units of measure consistent with measuring differential gene expression data. […]

Which “share of the 192 significant genes showing up-regulation” value does the source give for CC(C)(Sc1ccc(CCN(CCCCC2CCCCC2)C(=O)NC2CCCCC2)cc1)C(=O)O [GW7647] here?
The value was “Over 80%”.

What about the “threshold level (minimum exposure time with significant response)” value (0.001 μM of concentration) of the same molecule?
Its value is “greater than 72 hours”.

What about the “threshold level (minimum exposure time with significant response)” value (0.01 μM of concentration) of the same molecule?
The value was “greater than 72 hours”.

And the “threshold level (minimum exposure time with significant response)” value (1 μM of concentration)?
Its value is 2 h.

What about the “threshold level (minimum exposure time with significant response)” value (10 μM of concentration) of the same molecule?
The value was 2 h.

What about the “threshold level (minimum concentration with significant response, p 0.05)” value (2 hours of exposure) of the same molecule?
The value was 1 µM.

And the “threshold level (minimum concentration with significant response, p 0.05)” value (6 hours of exposure)?
The value was 0.1 µM.

And the “threshold level (minimum concentration with significant response, p 0.05)” value (12 hours of exposure)?
Its value is 0.1 µM.

And the “threshold level (minimum concentration with significant response, p 0.05)” value (24 hours of exposure)?
The value was 0.1 µM.

What about the “threshold level (minimum concentration with significant response, p 0.05)” value (72 hours of exposure) of the same molecule?
The value was 0.1 µM.

And the “MD number relative to baseline MD number of 18.05” value (72 hours of exposure, 10 μM, mean of four cell lines)?
Its value is 8.4 times.

And the “stress versus liver cells not exposed (significance of MD number)” value (concentration level 0.01 μM)?
Its value is “no significant difference in stress”.

And the “stress versus liver cells not exposed (significance of MD number)” value (concentration level 001 μM (so in the source))?
Its value is “no significant difference in stress”.

What about the “trend of MD number with time and concentration” value (human cell line 1153, similar for 1154, 1156, 1164) of the same molecule?
The value was “increases”.

What about the “trend of average MD number with exposure and concentration” value (mean of four human cell lines, 465 variables) of the same molecule?
The value was “increase”.

And the “mean MD number” value (mean of four human cell lines, 72 hours of exposure, 10 μM, 465 variables)?
The value was 151.76.

And the “trend of average MD number with exposure and concentration” value (reduced sample set, only 10 genes, mean of four human cell lines)?
Its value is “increase”.

And the “genes of significance that exhibited a reaction, of 14,000 genes examined by micro-array” value (varying times and concentrations)?
The value was 192 genes.
